Results reported in the supplement of paper PMC10307832.

Experiments:
Experiment in all cases: relative viability (nuclei count vs DMSO), 5 days (fraction); higher = more cells survive
[1] = compound: COc1cc2ncn(-c3cc(OCc4ccccc4C(F)(F)F)c(C(N)=O)s3)c2cc1OC + CC(=O)Nc1cccc(-n2c(=O)n(C3CC3)c(=O)c3c(Nc4ccc(I)cc4F)n(C)c(=O)c(C)c32)c1 [Trametinib] (partner 0.02 µM)
Procedure, shortened: (§1)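 Relative viability is defined as nuclei in treated wells over nuclei in vehicle wells. Duplicate plates were run and medians reported. Lung cancer cell lines in 1536-well plates were dosed by pin tool one day after seeding, with one drug or with a fixed anchor-drug dose plus five library-drug doses (not always all listed) in √10 steps, and nuclei were counted after 5 days.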

[2] = compound: COc1cc2ncn(-c3cc(OCc4ccccc4C(F)(F)F)c(C(N)=O)s3)c2cc1OC + C[C@@H](Oc1cc(-c2cnn(C3CCNCC3)c2)cnc1N)c1c(Cl)ccc(F)c1Cl [Crizotinib] (partner 1 µM)
Procedure, shortened: as §1

[3] = compound: COc1cc2ncn(-c3cc(OCc4ccccc4C(F)(F)F)c(C(N)=O)s3)c2cc1OC + N=C(N)NC(=N)NCCc1ccccc1 [Phenformin] (partner 250 µM)
Procedure, shortened: as §1

[4] = compound: COc1cc2ncn(-c3cc(OCc4ccccc4C(F)(F)F)c(C(N)=O)s3)c2cc1OC + COc1cccc2cc(-c3nc([C@H]4CC[C@H](C(=O)O)CC4)n4ncnc(N)c34)[nH]c12 [OSI-027] (partner 0.5 µM)
Procedure, shortened: as §1

| Cell Line | relative viability ([1]; first compound 0.05 µM) | relative viability ([1]; first compound 0.1581 µM) | relative viability ([1]; first compound 0.5 µM) | relative viability ([1]; first compound 1.581 µM) | relative viability ([1]; first compound 5 µM) | relative viability ([2]; first compound 0.05 µM) | relative viability ([2]; first compound 0.1581 µM) | relative viability ([2]; first compound 0.5 µM) | relative viability ([2]; first compound 1.581 µM) | relative viability ([2]; first compound 5 µM) | relative viability ([3]; first compound 0.05 µM) | relative viability ([3]; first compound 0.1581 µM) | relative viability ([3]; first compound 0.5 µM) | relative viability ([3]; first compound 1.581 µM) | relative viability ([3]; first compound 5 µM) | relative viability ([4]; first compound 0.05 µM) | relative viability ([4]; first compound 0.1581 µM) | relative viability ([4]; first compound 0.5 µM) | relative viability ([4]; first compound 1.581 µM) | relative viability ([4]; first compound 5 µM) |
| --- | --- | --- | --- | --- | --- | --- | --- | --- | --- | --- | --- | --- | --- | --- | --- | --- | --- | --- | --- | --- |
| NCI-H1734 | 0.52 | 0.558 | 0.623 | 0.294 | 0.163 | 0.656 | 0.616 | 0.36 | 0.239 | 0.14 | 0.417 | 0.329 | 0.322 | 0.18 | 0.121 | 0.619 | 0.688 | 0.489 | 0.26 | 0.194 |
| NCI-H1755 | 0.83 | 0.673 | 0.734 | 0.519 | 0.316 | 0.829 | 0.828 | 0.644 | 0.389 | 0.334 | 0.572 | 0.622 | 0.531 | 0.319 | 0.243 | 0.785 | 0.688 | 0.467 | 0.314 | 0.266 |
| NCI-H1792 | 0.305 | 0.43 | 0.275 | 0.0525 | 0.0332 | 1.05 | 0.937 | 0.752 | 0.459 | 0.0845 | 0.324 | 0.279 | 0.256 | 0.0695 | 0.0567 | 0.815 | 0.661 | 0.315 | 0.269 | 0.251 |
| NCI-H1915 | 0.227 | 0.172 | 0.24 | 0.117 | 0.0537 | 0.916 | 0.898 | 0.639 | 0.123 | 0.102 | 0.373 | 0.361 | 0.286 | 0.0964 | 0.0866 | 0.657 | 0.543 | 0.321 | 0.136 | 0.114 |
| NCI-H1944 | 0.413 | 0.42 | 0.337 | 0.189 | 0.123 | 1.32 | 1.18 | 1.1 | 0.351 | 0.113 | 0.211 | 0.234 | 0.174 | 0.106 | 0.0856 | 0.589 | 0.396 | 0.254 | 0.14 | 0.112 |
| NCI-H1975 | 0.369 | 0.192 | 0.182 | 0.135 | 0.155 | 1.04 | 0.913 | 0.462 | 0.212 | 0.2 | 0.44 | 0.392 | 0.229 | 0.162 | 0.113 | 0.66 | 0.547 | 0.328 | 0.109 | 0.1 |
| NCI-H1993 | 0.473 | 0.499 | 0.387 | 0.345 | 0.427 | 0.898 | 0.877 | 0.693 | 0.58 | 0.614 | 0.474 | 0.527 | 0.5 | 0.495 | 0.428 | 0.477 | 0.549 | 0.429 | 0.438 | 0.491 |
| NCI-H2009 | 0.248 | 0.251 | 0.287 | 0.129 | 0.0949 | 1.01 | 0.825 | 0.445 | 0.208 | 0.253 | 0.436 | 0.333 | 0.192 | 0.124 | 0.111 | 0.487 | 0.56 | 0.209 | 0.176 | 0.135 |
| NCI-H2023 | 0.502 | 0.501 | 0.358 | 0.0995 | 0.0739 | 0.605 | 0.67 | 0.424 | 0.138 | 0.0906 | 0.328 | 0.395 | 0.229 | 0.0904 | 0.0857 | 0.323 | 0.391 | 0.185 | 0.0955 | 0.0617 |
| NCI-H2085 | 0.332 | 0.614 | 0.421 | 0.221 | 0.2 | 0.842 | 0.848 | 0.629 | 0.517 | 0.309 | 0.719 | 0.725 | 0.367 | 0.234 | 0.251 | 0.739 | 0.731 | 0.316 | 0.295 | 0.203 |
| NCI-H2087 | 0.239 | 0.196 | 0.143 | 0.0778 | 0.111 | 0.934 | 0.793 | 0.32 | 0.18 | 0.139 | 0.51 | 0.458 | 0.269 | 0.111 | 0.107 | 0.747 | 0.471 | 0.181 | 0.101 | 0.0877 |
| NCI-H2126 | 0.535 | 0.582 | 0.478 | 0.27 | 0.205 | 1.05 | 1 | 0.849 | 0.419 | 0.264 | 0.481 | 0.579 | 0.367 | 0.265 | 0.261 | 0.715 | 0.771 | 0.604 | 0.289 | 0.22 |
| NCI-H2170 | 0.96 | 0.885 | 0.246 | 0.159 | 0.153 | 1.25 | 1.15 | 0.599 | 0.268 | 0.258 | 0.444 | 0.351 | 0.32 | 0.195 | 0.179 | 0.703 | 0.667 | 0.365 | 0.173 | 0.183 |
| NCI-H2228 | 0.409 | 0.268 | 0.188 | 0.116 | 0.136 | 0.542 | 0.554 | 0.31 | 0.207 | 0.308 | 0.305 | 0.337 | 0.155 | 0.121 | 0.144 | 0.662 | 0.558 | 0.192 | 0.134 | 0.179 |
| NCI-H2347 | 0.287 | 0.28 | 0.299 | 0.268 | 0.282 | 0.58 | 0.736 | 0.603 | 0.537 | 0.385 | 0.361 | 0.374 | 0.493 | 0.353 | 0.277 | 0.488 | 0.492 | 0.326 | 0.308 | 0.375 |
| NCI-H2405 | 0.672 | 0.412 | 0.47 | 0.367 | 0.311 | 0.84 | 0.682 | 0.595 | 0.357 | 0.463 | 0.437 | 0.274 | 0.29 | 0.322 | 0.246 | 0.647 | 0.613 | 0.384 | 0.357 | 0.268 |
